Data as given in ChEMBL document CHEMBL4507270 (2021).

How the values were obtained:
[1] = biological target: Ephrin type-B receptor 4 (Homo sapiens) (UniProt P54760)
[2] = biological target: Serine/threonine-protein kinase D2 (Homo sapiens) (UniProt Q9BZL6)
[3] = biological target: Myosin-IIIa (Homo sapiens) (UniProt Q8NEV4)
[4] = biological target: Dual specificity tyrosine-phosphorylation-regulated kinase 1B (Homo sapiens) (UniProt Q9Y463)
[5] = biological target: Protein kinase C delta type (Homo sapiens) (UniProt Q05655)
Protein kinase C delta type (Homo sapiens), sequence (Q05655 whole entry, looked up): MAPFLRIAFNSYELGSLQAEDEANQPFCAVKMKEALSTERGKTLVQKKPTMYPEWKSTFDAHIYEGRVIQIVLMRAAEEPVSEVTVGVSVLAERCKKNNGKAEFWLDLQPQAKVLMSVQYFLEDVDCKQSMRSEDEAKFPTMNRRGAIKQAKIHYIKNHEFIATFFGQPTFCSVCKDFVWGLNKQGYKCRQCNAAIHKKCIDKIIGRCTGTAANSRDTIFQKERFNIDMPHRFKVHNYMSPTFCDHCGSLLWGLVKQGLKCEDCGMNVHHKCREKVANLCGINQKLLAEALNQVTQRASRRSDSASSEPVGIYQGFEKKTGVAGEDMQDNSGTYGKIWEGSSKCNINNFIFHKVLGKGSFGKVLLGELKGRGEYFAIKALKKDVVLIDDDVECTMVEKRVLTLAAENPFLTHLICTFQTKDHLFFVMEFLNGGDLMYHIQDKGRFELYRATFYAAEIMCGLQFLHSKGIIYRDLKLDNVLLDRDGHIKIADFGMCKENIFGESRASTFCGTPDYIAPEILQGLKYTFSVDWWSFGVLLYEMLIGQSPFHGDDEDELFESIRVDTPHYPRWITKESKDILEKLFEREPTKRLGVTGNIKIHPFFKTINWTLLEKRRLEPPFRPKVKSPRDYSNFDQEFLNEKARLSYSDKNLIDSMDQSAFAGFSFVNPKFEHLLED

[6] = biological target: SRSF protein kinase 3 (Homo sapiens) (UniProt Q9UPE1)
SRSF protein kinase 3 (Homo sapiens), sequence (Q9UPE1 whole entry, the tested form may be a part): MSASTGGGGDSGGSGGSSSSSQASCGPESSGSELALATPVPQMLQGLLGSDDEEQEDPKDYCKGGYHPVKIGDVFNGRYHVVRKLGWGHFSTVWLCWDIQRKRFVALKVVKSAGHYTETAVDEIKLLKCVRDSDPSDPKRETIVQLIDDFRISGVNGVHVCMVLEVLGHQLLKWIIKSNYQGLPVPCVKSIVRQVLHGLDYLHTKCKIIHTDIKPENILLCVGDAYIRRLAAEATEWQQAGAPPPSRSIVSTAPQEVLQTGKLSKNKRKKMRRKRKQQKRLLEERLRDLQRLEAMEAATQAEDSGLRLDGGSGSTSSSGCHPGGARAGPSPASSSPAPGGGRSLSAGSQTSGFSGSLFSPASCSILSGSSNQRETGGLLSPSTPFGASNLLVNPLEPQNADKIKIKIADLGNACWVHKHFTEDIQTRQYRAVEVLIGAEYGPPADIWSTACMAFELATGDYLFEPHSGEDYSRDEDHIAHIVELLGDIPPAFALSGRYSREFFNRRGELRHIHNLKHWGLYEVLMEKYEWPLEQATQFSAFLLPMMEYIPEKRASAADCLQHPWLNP

[7] = biological target: Discoidin domain-containing receptor 2 (Homo sapiens) (UniProt Q16832)
[8] = biological target: Cyclin-dependent kinase 4 (Homo sapiens) (UniProt P11802)
[9] = biological target: Calcium/calmodulin-dependent protein kinase type IV (Homo sapiens) (UniProt Q16566)
[10] = biological target: Serine/threonine-protein kinase WNK3 (Homo sapiens) (UniProt Q9BYP7)
[11] = biological target: Mitogen-activated protein kinase kinase kinase kinase 1 (Homo sapiens) (UniProt Q92918)
Mitogen-activated protein kinase kinase kinase kinase 1 (Homo sapiens), sequence (Q92918 whole entry, looked up): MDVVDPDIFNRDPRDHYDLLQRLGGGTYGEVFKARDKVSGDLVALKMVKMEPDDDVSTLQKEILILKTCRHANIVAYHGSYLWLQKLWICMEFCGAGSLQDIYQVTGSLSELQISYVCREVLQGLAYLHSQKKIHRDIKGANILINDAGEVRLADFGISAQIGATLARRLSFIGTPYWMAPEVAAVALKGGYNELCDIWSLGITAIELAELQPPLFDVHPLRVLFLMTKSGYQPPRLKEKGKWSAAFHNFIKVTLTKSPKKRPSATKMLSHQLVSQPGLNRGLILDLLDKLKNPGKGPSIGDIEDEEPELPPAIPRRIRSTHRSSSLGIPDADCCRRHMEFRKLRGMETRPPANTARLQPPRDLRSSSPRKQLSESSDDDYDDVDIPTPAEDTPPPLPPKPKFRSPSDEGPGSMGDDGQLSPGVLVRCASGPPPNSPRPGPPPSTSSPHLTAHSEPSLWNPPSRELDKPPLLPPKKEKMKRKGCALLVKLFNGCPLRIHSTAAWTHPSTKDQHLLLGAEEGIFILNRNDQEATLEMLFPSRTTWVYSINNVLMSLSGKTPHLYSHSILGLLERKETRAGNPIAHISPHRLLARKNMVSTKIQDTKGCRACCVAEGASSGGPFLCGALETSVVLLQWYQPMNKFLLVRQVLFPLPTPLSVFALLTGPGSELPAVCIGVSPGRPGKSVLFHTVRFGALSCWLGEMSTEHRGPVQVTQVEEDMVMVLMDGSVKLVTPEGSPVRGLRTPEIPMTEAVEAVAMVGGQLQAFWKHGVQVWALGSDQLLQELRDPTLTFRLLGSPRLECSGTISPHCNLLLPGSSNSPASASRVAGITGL

[12] = biological target: 5'-AMP-activated protein kinase catalytic subunit alpha-1 (Homo sapiens) (UniProt Q13131)
[13] = biological target: Serine/threonine-protein kinase Sgk2 (Homo sapiens) (UniProt Q9HBY8)
Serine/threonine-protein kinase Sgk2 (Homo sapiens), sequence (Q9HBY8 whole entry): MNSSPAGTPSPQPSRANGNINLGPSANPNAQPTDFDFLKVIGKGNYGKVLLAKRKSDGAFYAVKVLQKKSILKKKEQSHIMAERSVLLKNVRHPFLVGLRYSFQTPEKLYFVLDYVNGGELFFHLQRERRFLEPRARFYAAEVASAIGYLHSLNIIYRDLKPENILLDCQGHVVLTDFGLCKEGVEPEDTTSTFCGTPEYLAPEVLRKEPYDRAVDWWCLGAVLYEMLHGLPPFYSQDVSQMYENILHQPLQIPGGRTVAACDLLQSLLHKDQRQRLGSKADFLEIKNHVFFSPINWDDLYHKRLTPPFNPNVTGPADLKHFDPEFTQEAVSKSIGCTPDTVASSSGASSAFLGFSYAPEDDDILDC

[14] = biological target: Activin receptor type-1-like (Homo sapiens) (UniProt P37023)
[15] = tested on: Tyrosine-protein kinase ABL1 (Homo sapiens), P00519 [F317I]
[16] = biological target: SNF-related serine/threonine-protein kinase (Homo sapiens) (UniProt Q9NRH2)
[17] = biological target: Tyrosine-protein kinase ABL2 (Homo sapiens) (UniProt P42684)
[18] = biological target: Serine/threonine-protein kinase Chk2 (Homo sapiens) (UniProt O96017)
[19] = biological target: D(4) dopamine receptor (Homo sapiens) (UniProt P21917); settings: Compound concentration 10.0 uM
[20] = biological target: Receptor tyrosine-protein kinase erbB-3 (Homo sapiens) (UniProt P21860)
Receptor tyrosine-protein kinase erbB-3 (Homo sapiens), sequence (P21860 whole entry): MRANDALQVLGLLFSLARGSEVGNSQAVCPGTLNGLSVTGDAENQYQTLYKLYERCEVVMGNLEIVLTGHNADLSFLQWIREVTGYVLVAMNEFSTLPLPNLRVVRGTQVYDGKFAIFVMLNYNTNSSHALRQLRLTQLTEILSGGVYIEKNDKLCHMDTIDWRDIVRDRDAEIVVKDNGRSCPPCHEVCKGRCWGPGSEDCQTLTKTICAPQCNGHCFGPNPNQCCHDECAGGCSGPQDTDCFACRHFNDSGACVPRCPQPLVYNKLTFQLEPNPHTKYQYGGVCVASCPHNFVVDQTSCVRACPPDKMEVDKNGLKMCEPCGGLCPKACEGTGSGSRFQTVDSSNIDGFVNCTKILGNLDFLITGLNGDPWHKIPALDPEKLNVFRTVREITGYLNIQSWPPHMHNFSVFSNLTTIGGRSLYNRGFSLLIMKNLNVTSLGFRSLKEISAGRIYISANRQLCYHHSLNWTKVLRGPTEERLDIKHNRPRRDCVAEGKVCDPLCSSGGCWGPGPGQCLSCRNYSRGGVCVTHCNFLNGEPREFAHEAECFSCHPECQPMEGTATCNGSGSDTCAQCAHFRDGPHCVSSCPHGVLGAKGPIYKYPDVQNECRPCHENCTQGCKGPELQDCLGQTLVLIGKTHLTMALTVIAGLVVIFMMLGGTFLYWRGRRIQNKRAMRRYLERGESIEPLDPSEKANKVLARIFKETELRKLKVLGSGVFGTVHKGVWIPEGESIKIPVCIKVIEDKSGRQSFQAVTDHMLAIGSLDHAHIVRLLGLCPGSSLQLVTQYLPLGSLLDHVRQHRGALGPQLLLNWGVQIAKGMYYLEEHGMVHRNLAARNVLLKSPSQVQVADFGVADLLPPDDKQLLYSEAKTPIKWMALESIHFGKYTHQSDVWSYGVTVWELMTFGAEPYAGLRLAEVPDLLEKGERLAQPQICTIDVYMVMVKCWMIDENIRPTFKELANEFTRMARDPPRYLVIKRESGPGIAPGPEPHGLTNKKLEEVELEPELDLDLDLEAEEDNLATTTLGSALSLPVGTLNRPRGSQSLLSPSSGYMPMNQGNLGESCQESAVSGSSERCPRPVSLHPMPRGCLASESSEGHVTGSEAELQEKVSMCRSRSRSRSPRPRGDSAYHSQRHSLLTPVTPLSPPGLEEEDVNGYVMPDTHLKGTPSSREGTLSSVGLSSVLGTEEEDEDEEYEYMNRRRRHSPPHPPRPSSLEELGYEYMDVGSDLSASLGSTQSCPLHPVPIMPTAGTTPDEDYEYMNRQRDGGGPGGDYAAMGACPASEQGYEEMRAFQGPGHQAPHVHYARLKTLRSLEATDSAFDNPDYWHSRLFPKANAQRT

[21] = biological target: Tyrosine-protein kinase Mer (Homo sapiens) (UniProt Q12866)
[22] = biological target: 5-hydroxytryptamine receptor 1E (Homo sapiens) (UniProt P28566); settings: Compound concentration 10.0 uM
[23] = biological target: Phosphatidylinositol 4-phosphate 5-kinase type-1 gamma (Homo sapiens) (UniProt O60331)
Phosphatidylinositol 4-phosphate 5-kinase type-1 gamma (Homo sapiens), sequence (O60331 whole entry): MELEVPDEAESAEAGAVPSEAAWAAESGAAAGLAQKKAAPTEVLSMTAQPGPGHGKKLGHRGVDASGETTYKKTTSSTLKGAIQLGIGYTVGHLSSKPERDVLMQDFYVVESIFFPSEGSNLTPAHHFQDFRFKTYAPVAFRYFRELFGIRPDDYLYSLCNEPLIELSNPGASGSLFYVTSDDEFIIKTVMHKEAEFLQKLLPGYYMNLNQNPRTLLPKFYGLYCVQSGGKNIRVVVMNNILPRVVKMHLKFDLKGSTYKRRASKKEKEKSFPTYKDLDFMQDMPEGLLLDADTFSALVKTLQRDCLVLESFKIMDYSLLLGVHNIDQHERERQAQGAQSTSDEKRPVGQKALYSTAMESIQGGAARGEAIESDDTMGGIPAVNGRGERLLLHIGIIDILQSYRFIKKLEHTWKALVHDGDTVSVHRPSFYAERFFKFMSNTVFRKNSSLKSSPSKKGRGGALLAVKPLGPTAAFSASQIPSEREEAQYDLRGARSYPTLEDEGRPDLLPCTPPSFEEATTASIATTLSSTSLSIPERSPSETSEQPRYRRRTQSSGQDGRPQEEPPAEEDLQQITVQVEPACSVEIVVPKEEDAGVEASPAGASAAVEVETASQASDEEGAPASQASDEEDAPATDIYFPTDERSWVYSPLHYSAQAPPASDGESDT

[24] = biological target: Mitogen-activated protein kinase 13 (Homo sapiens) (UniProt O15264)
[25] = tested on: eIF-2-alpha kinase GCN2 (Homo sapiens), Q9P2K8 [S808G]
[26] = biological target: Serine/threonine-protein kinase 26 (Homo sapiens) (UniProt Q9P289)
[27] = biological target: Calcium/calmodulin-dependent protein kinase kinase 1 (Homo sapiens) (UniProt Q8N5S9)
[28] = tested on: Tyrosine-protein kinase ABL1 (Homo sapiens), P00519 [T315I]
[29] = tested on: Epidermal growth factor receptor (Homo sapiens), P00533 [L861Q]
[30] = biological target: Mitogen-activated protein kinase 9 (Homo sapiens) (UniProt P45984)
[31] = biological target: Alpha-1A adrenergic receptor (Homo sapiens) (UniProt P35348); settings: Compound concentration 10.0 uM
[32] = biological target: NUAK family SNF1-like kinase 1 (Homo sapiens) (UniProt O60285)
[33] = biological target: Calcium/calmodulin-dependent protein kinase type II subunit alpha (Homo sapiens) (UniProt Q9UQM7)
[34] = biological target: Rho-associated protein kinase 2 (Homo sapiens) (UniProt O75116)
[35] = biological target: 5-hydroxytryptamine receptor 2C (Homo sapiens) (UniProt P28335); settings: Compound concentration 10.0 uM
[36] = biological target: Beta-adrenergic receptor kinase 1 (Homo sapiens) (UniProt P25098)
[37] = biological target: Receptor-interacting serine/threonine-protein kinase 4 (Homo sapiens) (UniProt P57078)
[38] = biological target: Phosphatidylinositol 4,5-bisphosphate 3-kinase catalytic subunit beta isoform (Homo sapiens) (UniProt P42338)
[39] = tested on: Phosphatidylinositol 4,5-bisphosphate 3-kinase catalytic subunit alpha isoform (Homo sapiens), P42336 [E545A]
[40] = biological target: Serine/threonine-protein kinase PLK3 (Homo sapiens) (UniProt Q9H4B4)
[41] = biological target: Focal adhesion kinase 1 (Homo sapiens) (UniProt Q05397)
[42] = biological target: Fibroblast growth factor receptor 2 (Homo sapiens) (UniProt P21802)
[43] = biological target: Uncharacterized serine/threonine-protein kinase SBK3 (Homo sapiens) (UniProt P0C264)
[44] = biological target: LIM domain kinase 1 (Homo sapiens) (UniProt P53667)
[45] = biological target: cAMP-dependent protein kinase catalytic subunit PRKX (Homo sapiens) (UniProt P51817)
cAMP-dependent protein kinase catalytic subunit PRKX (Homo sapiens), sequence (P51817 whole entry): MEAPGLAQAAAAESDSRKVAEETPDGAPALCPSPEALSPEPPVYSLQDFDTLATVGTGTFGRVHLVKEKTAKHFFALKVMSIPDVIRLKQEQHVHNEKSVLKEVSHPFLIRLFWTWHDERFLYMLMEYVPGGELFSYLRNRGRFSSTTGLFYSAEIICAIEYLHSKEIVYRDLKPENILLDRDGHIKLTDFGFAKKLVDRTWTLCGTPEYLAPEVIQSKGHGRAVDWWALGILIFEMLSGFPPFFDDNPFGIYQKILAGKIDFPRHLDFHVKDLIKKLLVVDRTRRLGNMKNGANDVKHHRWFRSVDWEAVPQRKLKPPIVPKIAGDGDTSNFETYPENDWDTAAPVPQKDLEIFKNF

[46] = Compound concentration 1000.0 nM
[47] = Compound concentration 100.0 nM

SMILES: Cc1cc(NC(=O)c2cccc(S(F)(F)(F)(F)F)c2)cc(-n2ccn3nc(-c4cccnc4)cc23)c1 [BAY-309]
- residual activity [1, 46]: 100%
- residual activity [2, 46]: 100%
- residual activity [3, 46]: 100%
- residual activity [4, 46]: 61.2%
- residual activity [5, 46]: 95.8%
- residual activity [6, 46]: 100%
- residual activity [7, 46]: 18.2%
- residual activity [8, 46]: 79.3%
- residual activity [9, 46]: 80.5%
- residual activity [10, 46]: 100%
- residual activity [11, 46]: 82.1%
- residual activity [12, 46]: 100%
- residual activity [13, 46]: 100%
- residual activity [14, 46]: 100%
- residual activity [15, 46]: 100%
- residual activity [16, 46]: 100%
- residual activity [17, 46]: 100%
- residual activity [18, 46]: 100%
- inhibition [19]: 12.4%
- residual activity [20, 46]: 49.4%
- residual activity [21, 46]: 100%
- inhibition [22]: 19.9%
- residual activity [23, 46]: 100%
- residual activity [24, 46]: 79.6%
- residual activity [25, 46]: 100%
- residual activity [26, 46]: 100%
- residual activity [27, 46]: 100%
- residual activity [28, 46]: 60.8%
- residual activity [29, 46]: 98.2%
- residual activity [30, 46]: 76.9%
- inhibition [31]: 5.89%
- residual activity [32, 46]: 51.3%
- residual activity [33, 46]: 100%
- residual activity [34, 46]: 87.6%
- inhibition [35]: 66%
- residual activity [36, 46]: 74.5%
- residual activity [37, 46]: 34.1%
- residual activity [38, 46]: 100%
- residual activity [39, 46]: 69.2%
- residual activity [40, 46]: 69.4%
- residual activity [41, 46]: 96.4%
- residual activity [42, 46]: 81.7%
- residual activity [43, 46]: 100%
- residual activity [44, 46]: 100%
- residual activity [45, 46]: 100%

SMILES: Cc1cc(C)c(-n2ccn3nc(-c4cccnc4)cc23)cc1NC(=O)c1cc(C#N)cc(S(F)(F)(F)(F)F)c1 [BAY-826]
- residual activity [1, 47]: 99.6%
- residual activity [2, 47]: 100%
- residual activity [3, 47]: 94.9%
- residual activity [4, 47]: 100%
- residual activity [5, 47]: 93.1%
- residual activity [6, 47]: 100%
- residual activity [7, 47]: 1.8%
- residual activity [8, 47]: 82.4%
- residual activity [9, 47]: 93.9%
- residual activity [10, 47]: 61.9%
- residual activity [11, 47]: 100%
- residual activity [12, 47]: 77%
- residual activity [13, 47]: 100%
- residual activity [14, 47]: 78.9%
- residual activity [15, 47]: 76.4%
- residual activity [16, 47]: 100%
- residual activity [17, 47]: 67.8%
- residual activity [18, 47]: 100%
- inhibition [19]: 16.4%
- residual activity [20, 47]: 96.2%
- residual activity [21, 47]: 83.6%
- inhibition [22]: 3.57%
- residual activity [23, 47]: 70.2%
- residual activity [24, 47]: 65.6%
- residual activity [25, 47]: 100%
- residual activity [26, 47]: 81.8%
- residual activity [27, 47]: 93.6%
- residual activity [28, 47]: 83.8%
- residual activity [29, 47]: 91.1%
- residual activity [30, 47]: 66.1%
- inhibition [31]: -3.02%
- residual activity [32, 47]: 100%
- residual activity [33, 47]: 95%
- residual activity [34, 47]: 66.2%
- inhibition [35]: 34.5%
- residual activity [36, 47]: 91.8%
- residual activity [37, 47]: 62.9%
- residual activity [38, 47]: 89.1%
- residual activity [39, 47]: 73%
- residual activity [40, 47]: 81.8%
- residual activity [41, 47]: 100%
- residual activity [42, 47]: 84.3%
- residual activity [43, 47]: 100%
- residual activity [44, 47]: 83.6%
- residual activity [45, 47]: 68.5%
